Assay results: US20100028889A1, “COMPANION DIAGNOSTIC ASSAYS FOR CANCER THERAPY” (ABBOTT LABORATORIES, priority 2006, published 2010)
pEC50: −log10 of the molar value. Like-named read-outs stand apart in the source and are kept apart here.

Assays:
Assay in all cases: cell cytotoxicity EC50, CellTiter Glo, SCLC cell line
Type in all cases: cell-based, human
NCI-H1618 = test system: NCI-H1618
Procedure: (§1) The SCLC and leukemia/lymphoma cell lines listed below were obtained from the American Type Culture Collection (Manassas, Va.), Deutsche Sammlung von Mikroorganismen und Zellkulturen (DSMZ, Braunsweig, Germany), or were the generous gift from Dr. Louis Staudt (National Cancer Institute) and were cultured as described in Tse, C., Shoemaker, A. R., Adickes, J., et al., “ABT-263: a potent and orally bioavailable Bcl-2 family inhibitor,” Cancer Res 2008; 68: 3421-3428; and Tahir, S. K., Yang, X., Anderson, M. G., et al., “Influence of Bcl-2 family members on the cellular response of small-cell lung cancer cell lines to ABT-737,” Cancer Res 2007; 67: 1176-1183.
(§2) Cells were treated at 10,000 or 50,000 cells per well for adherent or suspension cells, respectively, in 96-well microtiter plates in the presence of 10% human serum for 48 hours with or without ABT-263, in a humidified chamber with 5% CO2. ABT-263 was synthesized as previously described in Tse, C., Shoemaker, A. R., Adickes, J., et al., “ABT-263: a potent and orally bioavailable Bcl-2 family inhibitor,” Cancer Res 2008; 68: 3421-3428; and Oltersdorf, T., Elmore, S. W., Shoemaker, A. R., et al., “An inhibitor of Bcl-2 family proteins induces regression of solid tumours,” Nature 2005; 435: 677-681, and cell cytotoxicity EC50 values were assessed using CellTiter Glo (Promega, Madison Wis.).

NCI-H2081 = test system: NCI-H2081
Procedure: as §1, §2

NCI-H740 = test system: NCI-H740
Procedure: as §1, §2

DMS79 = test system: DMS79
Procedure: as §1, §2

NCI-1048 = test system: NCI-1048
Procedure: as §1, §2

NCI-H1836 = test system: NCI-H1836
Procedure: as §1, §2

NCI-H1672 = test system: NCI-H1672
Procedure: as §1, §2

NCI-H510 = test system: NCI-H510
Procedure: as §1, §2

NCI-H128 = test system: NCI-H128
Procedure: as §1, §2

NCI-H69 = test system: NCI-H69
Procedure: as §1, §2

NCI-211 = test system: NCI-211
Procedure: as §1, §2

NCI-H345 = test system: NCI-H345
Procedure: as §1, §2

NCI-H1688 = test system: NCI-H1688
Procedure: as §1, §2

NCI-H2107 = test system: NCI-H2107
Procedure: as §1, §2

DMS 53 = test system: DMS 53
Procedure: as §1, §2

NCI-H378 = test system: NCI-H378
Procedure: as §1, §2

NCI-H82 = test system: NCI-H82
Procedure: as §1, §2

NCI-H1930 = test system: NCI-H1930
Procedure: as §1, §2

H69AR = test system: H69AR
Procedure: as §1, §2

NCI-H889 = test system: NCI-H889
Procedure: as §1, §2

[1] = 10% human serum, 48 hours, read-out: EC50
[2] = Homo sapiens, read-out: Response Designation

CC1(C)CCC(c2ccc(Cl)cc2)=C(CN2CCN(c3ccc(C(=O)NS(=O)(=O)c4ccc(N[C@H](CCN5CCOCC5)CSc5ccccc5)c(S(=O)(=O)C(F)(F)F)c4)cc3)CC2)C1 [ABT-263, N-(4-(4-((2-(4-chlorophenyl)-5,5-dimethyl-1-cyclohex-1-en-1-yl)methyl)piperazin-1-yl)benzoyl)-4-(((1R)-3-(morpholin-4-yl)-1-((phenylsulfanyl)methyl)propyl)amino)-3-((trifluoromethyl)sulfonyl)benzenesulfonamide]
pEC50 (NCI-H1618; [1]): 5.85
pEC50 (NCI-H1618; [2]): ≥ 5.39
pEC50 (NCI-H2081; [1]): 4.92
pEC50 (NCI-H2081; [2]): < 5.39
pEC50 (NCI-H740; [1]): < 5.00
pEC50 (NCI-H740; [2]): < 5.39
pEC50 (DMS79; DMS-79, 10% human serum, 48 hours, read-out: EC50): 5.72
pEC50 (DMS79; Homo sapiens, DMS-79, read-out: Response Designation): ≥ 5.39
pEC50 (NCI-1048; [1]): 5.54
pEC50 (NCI-1048; [2]): ≥ 5.39
pEC50 (NCI-H1836; [1]): 6.40
pEC50 (NCI-H1836; [2]): ≥ 5.39
pEC50 (NCI-H1672; [1]): 6.15
pEC50 (NCI-H1672; [2]): ≥ 5.39
pEC50 (NCI-H510; [1]): 5.91
pEC50 (NCI-H510; [2]): ≥ 5.39
pEC50 (NCI-H128; [1]): 5.60
pEC50 (NCI-H128; [2]): ≥ 5.39
pEC50 (NCI-H69; [1]): 6.15
pEC50 (NCI-H69; [2]): ≥ 5.39
pEC50 (NCI-211; [1]): 6.39
pEC50 (NCI-211; [2]): ≥ 5.39
pEC50 (NCI-H345; [1]): 5.67
pEC50 (NCI-H345; [2]): ≥ 5.39
pEC50 (NCI-H1688; [1]): 5.09
pEC50 (NCI-H1688; [2]): < 5.39
pEC50 (NCI-H2107; [1]): 6.52
pEC50 (NCI-H2107; [2]): ≥ 5.39
pEC50 (DMS 53; [1]): 5.80
pEC50 (DMS 53; [2]): ≥ 5.39
pEC50 (NCI-H378; [1]): < 4.30
pEC50 (NCI-H378; [2]): < 5.39
pEC50 (NCI-H82; [1]): 4.65
pEC50 (NCI-H82; [2]): < 5.39
pEC50 (NCI-H1930; [1]): 5.52
pEC50 (NCI-H1930; [2]): ≥ 5.39
pEC50 (H69AR; [1]): 4.65
pEC50 (H69AR; [2]): < 5.39
pEC50 (NCI-H889; [1]): 6.85
pEC50 (NCI-H889; [2]): ≥ 5.39
